From ChEMBL document CHEMBL1201862, “PubChem BioAssay data set” (2004)
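Five concentrations, 48 hours, 96-well plates. GI50 marks 50% less growth.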 The source made the active and inactive calls. Cut-off read from the data, not from the text of the source: active = GI50 up to about 1.1 µM and inactive = higher.

How the values were obtained:
Test in all cases: DTP human tumour cell line panel, 48 h
[1] = system: SNB-19
[2] = system: IGROV-1
[3] = system: RXF 393
[4] = system: Hs-578T
[5] = system: T47D
[6] = system: PC-3
[7] = system: MOLT-4
[8] = system: HCT-15
[9] = system: COLO 205
[10] = system: HL-60
[11] = system: A549
[12] = system: M14
[13] = system: HT-29
[14] = system: HOP-92
[15] = system: OVCAR-4
[16] = system: KM12
[17] = system: MDA-N
[18] = system: SK-MEL-5
[19] = system: MCF7
[20] = system: OVCAR-3

Row | SMILES | GI50 [1] | GI50 [2] | GI50 [3] | GI50 [4] | GI50 [5] | GI50 [6] | GI50 [7] | GI50 [8] | GI50 [9] | GI50 [10] | GI50 [11] | GI50 [12] | GI50 [13] | GI50 [14] | GI50 [15] | GI50 [16] | GI50 [17] | GI50 [18] | GI50 [19] | GI50 [20]
1 | CCN(CCCl)c1cc(CN(C)C)cc(NC(=O)C23CCC(C(=O)Nc4cc(CN(C)C)cc(N(CC)CCCl)c4)(CC2)CC3)c1 | 0.113 µM (active) | 1.44 µM (inactive) | 1.37 µM (inactive) | 0.46 µM (active) | 3.03 µM (inactive) | 0.351 µM (active) | < 0.01 µM (active) | 13.4 µM | 1.49 µM (inactive) | 0.0157 µM (active) | 1.03 µM (active) | 2.97 µM (inactive) | 0.229 µM (active) | 1.43 µM (inactive) | 1.4 µM (inactive) | 1.67 µM (inactive) | 1.12 µM (inactive) | 1.75 µM (inactive) | 0.0255 µM (active) | –
2 | NS(=O)(=O)c1ccc(Nc2c3ccccc3nc3c(C(=O)NCCCN(CCO)CCO)cccc23)cc1 | 15.2 µM (inactive) | 19.4 µM (inactive) | – | 19.6 µM (inactive) | 15.8 µM (inactive) | 34.2 µM (inactive) | 4.86 µM (inactive) | > 100 µM | 13 µM (inactive) | > 10 µM (inactive) | 26.7 µM (inactive) | 24.2 µM (inactive) | 25.6 µM (inactive) | 26.3 µM (inactive) | 31.3 µM (inactive) | 16.7 µM (inactive) | 19.8 µM (inactive) | 14.8 µM (inactive) | 4.8 µM (inactive) | 24.3 µM (inactive)
3 | COc1ccc(C2OC2C(=O)C23CC4CC(CC(C4)C2)C3)cc1 (stereo not drawn) | 33.3 µM (inactive) | 71.1 µM (inactive) | 37.6 µM (inactive) | 13.6 µM (inactive) | 14.4 µM (inactive) | 31.9 µM (inactive) | 47.1 µM (inactive) | 41.4 µM | – | 15.9 µM (inactive) | 45.6 µM (inactive) | > 100 µM (inactive) | 13.4 µM (inactive) | 19.1 µM (inactive) | > 100 µM (inactive) | 96.8 µM (inactive) | 37.8 µM (inactive) | 77.8 µM (inactive) | 47.9 µM (inactive) | > 100 µM (inactive)
4 | CNC1(C(=O)O)CC1 | > 100 µM (inactive) | > 100 µM (inactive) | > 100 µM (inactive) | > 100 µM (inactive) | 87.5 µM (inactive) | > 100 µM (inactive) | > 100 µM (inactive) | > 100 µM | – | > 100 µM (inactive) | > 100 µM (inactive) | > 100 µM (inactive) | > 100 µM (inactive) | > 100 µM (inactive) | > 100 µM (inactive) | > 100 µM (inactive) | > 100 µM (inactive) | > 100 µM (inactive) | > 100 µM (inactive) | > 100 µM (inactive)
5 | CC1OC2OC3C(OCC(O)C3O)OC(=O)[C@]34CCC(C)(C)CC3C3=CCC5[C@@]6(C)C[C@H](O)[C@H](OC7OC(CO)C(O)C(O)C7OC7OC(COC(=O)CC(C)(O)CC(=O)OC1C(O)C2O)C(O)C(O)C7O)[C@@](C)(CO)C6CC[C@@]5(C)[C@]3(C)CC4 (stereo partly drawn) | 1.68 µM (inactive) | 1.24 µM (inactive) | – | 1.79 µM (inactive) | 2.39 µM (inactive) | 1.38 µM (inactive) | 1.32 µM (inactive) | 1.53 µM | 1.52 µM (inactive) | 1.4 µM (inactive) | 1.32 µM (inactive) | 1.43 µM (inactive) | 1.69 µM (inactive) | 1.54 µM (inactive) | 1.51 µM (inactive) | 1.48 µM (inactive) | 1.52 µM (inactive) | 1.21 µM (inactive) | 4.46 µM (inactive) | 1.53 µM (inactive)
6 | Cc1nc(-c2ccccc2)c(C)n2c1nc1ccccc12 | 35.6 µM (inactive) | 30.4 µM (inactive) | 25.1 µM (inactive) | 40 µM (inactive) | 12.6 µM (inactive) | 29.9 µM (inactive) | 27.5 µM (inactive) | 24.2 µM | 31.3 µM (inactive) | 16.5 µM (inactive) | 34.2 µM (inactive) | 20.3 µM (inactive) | 20.8 µM (inactive) | 19 µM (inactive) | 17.2 µM (inactive) | 36.8 µM (inactive) | 29.9 µM (inactive) | – | 24 µM (inactive) | 24.6 µM (inactive)
7 | O=C1c2c(ccc3c2CCCC3)CC12Cc1ccc3c(c1C2=O)CCCC3 | > 100 µM (inactive) | > 100 µM (inactive) | > 100 µM (inactive) | > 100 µM (inactive) | > 100 µM (inactive) | > 100 µM (inactive) | > 100 µM (inactive) | > 100 µM | – | > 100 µM (inactive) | > 100 µM (inactive) | > 100 µM (inactive) | > 100 µM (inactive) | 60.7 µM (inactive) | > 100 µM (inactive) | – | > 100 µM (inactive) | > 100 µM (inactive) | > 100 µM (inactive) | > 100 µM (inactive)
8 | COc1ccc2c(c1)N=C1CSC(c3cccc(Br)c3)N1C2 (stereo not drawn) | 22.5 µM (inactive) | 18.6 µM (inactive) | 14.6 µM (inactive) | 26.3 µM (inactive) | 24 µM (inactive) | 11.5 µM (inactive) | 2.99 µM (inactive) | 6.14 µM | 17.4 µM (inactive) | 9.51 µM (inactive) | 16.6 µM (inactive) | 16.6 µM (inactive) | 14.8 µM (inactive) | 16.7 µM (inactive) | 15.9 µM (inactive) | 10.9 µM (inactive) | 11.5 µM (inactive) | 10.4 µM (inactive) | 6.59 µM (inactive) | –
9 | O=C1CSC2(CC(/C=C/c3ccccc3O)=NN2c2cccc(S(=O)(=O)O)c2)N1c1nc2ccccc2s1 (stereo not drawn) | 53.7 µM (inactive) | 23.3 µM (inactive) | 54.6 µM (inactive) | 47.3 µM (inactive) | 19.6 µM (inactive) | 64 µM (inactive) | 20.3 µM (inactive) | 20 µM | 29.9 µM (inactive) | 15.7 µM (inactive) | 50.4 µM (inactive) | 59.4 µM (inactive) | 45.4 µM (inactive) | 25.6 µM (inactive) | 22 µM (inactive) | 30.6 µM (inactive) | 38.3 µM (inactive) | 25.9 µM (inactive) | 34.3 µM (inactive) | –
10 | COc1ccc2c(c1O)-c1c(OC)c(OC)cc3c1[C@H](C2)[N+](C)(C)CC3 | > 100 µM (inactive) | > 100 µM (inactive) | – | > 100 µM (inactive) | > 100 µM (inactive) | > 100 µM (inactive) | > 100 µM (inactive) | > 100 µM | > 100 µM (inactive) | > 100 µM (inactive) | > 100 µM (inactive) | > 100 µM (inactive) | > 100 µM (inactive) | 13.2 µM (inactive) | > 100 µM (inactive) | > 100 µM (inactive) | > 100 µM (inactive) | > 100 µM (inactive) | > 100 µM (inactive) | > 100 µM (inactive)
11 | CC(=O)c1csc2c1C(=O)c1ccccc1C2=O | 2.12 µM (inactive) | 2.4 µM (inactive) | 10.2 µM (inactive) | 2.43 µM (inactive) | 21.7 µM (inactive) | 7.57 µM (inactive) | – | 4.55 µM | 1.74 µM (inactive) | 0.29 µM (active) | 1.92 µM (inactive) | 1.07 µM (active) | 2.02 µM (inactive) | 30.5 µM (inactive) | 6.04 µM (inactive) | 1.53 µM (inactive) | 1.22 µM (inactive) | 0.18 µM (active) | 2.1 µM (inactive) | 3.66 µM (inactive)
